Converted amounts (≈) assume the structure as drawn. Like-named read-outs stand apart in the source and are kept apart here.
Legend:
[1] = tested on: Mycobacterium aurum DSM 43999 (ATCC 23366); assay: Microdilution broth, modified Microplate Alamar Blue Assay, whole cell growth inhibition; assay type: cell-based; settings: Mycolicibacterium aurum, read-out: MIC Mycobacterium aurum
[2] = tested on: Mycobacterium smegmatis DSM 43465 (ATCC 607); assay: as above; assay type: cell-based; settings: Mycolicibacterium smegmatis, read-out: MIC Mycobacterium smegmatis
HepG2 cells = assay: HepG2 cytotoxicity, CellTiter 96 (MTS) assay; assay type: cell-based, human; settings: Homo sapiens, read-out: HepG2 IC50
[3] = assay type: physicochemical
Protocol: As a complementary test, final compounds were tested for in vitro activity against selected fungal and bacterial pathogens of clinical importance. The microdilution broth method was performed according to The European Committee on Antimicrobial Susceptibility Testing (EUCAST) instructions with slight modifications. The minimum inhibitory concentration was expressed in µM. Not all compounds were evaluated due to the fact of a problem with solubility which occurred for 18 samples. […] See Supplementary Materials for the list of tested strains, methodology, and full results.

[4] = tested on: Mycobacterium tuberculosis H37Ra ITM-M006710 (ATCC 9431); assay: Microdilution broth, modified Microplate Alamar Blue Assay, whole cell growth inhibition; assay type: cell-based; settings: Mycobacterium tuberculosis; in vitro, Middlebrook 7H9 broth, resazurin; read-out: MIC Mtb H37Ra
[5] = tested on: Staphylococcus aureus methicillin resistant ATCC 43300, CCM 4750; assay: microbe, parasite or virus in culture; assay type: cell-based; settings: ATCC 43300 / CCM 4750 / MRSA, read-out: MIC MRSA
[6] = tested on: Klebsiella pneumoniae ATCC 10031, CCM 4415; assay: Antibacterial microdilution broth method (EUCAST)
[7] = tested on: Pseudomonas aeruginosa ATCC 27853, CCM 3955; assay: Antibacterial microdilution broth method (EUCAST); assay type: cell-based; settings: read-out: MIC PA
[8] = tested on: Aspergillus fumigatus ATCC 204305; assay: Antifungal microdilution broth method (EUCAST); assay type: cell-based; settings: read-out: MIC AF
[9] = tested on: Candida tropicalis ATCC 750, CCM 8264; assay: Antifungal microdilution broth method (EUCAST); assay type: cell-based; settings: read-out: MIC CT
[10] = tested on: Candida krusei ATCC 6258, CCM 8271; assay: Antifungal microdilution broth method (EUCAST); assay type: cell-based; settings: Pichia kudriavzevii, read-out: MIC CK
[11] = tested on: Escherichia coli ATCC 25922, CCM 3954; assay: Antibacterial microdilution broth method (EUCAST); assay type: cell-based; settings: read-out: MIC EC
[12] = tested on: Trichophyton interdigitale ATCC 9533, CCM 8377; assay: Antifungal microdilution broth method (EUCAST); assay type: cell-based; settings: read-out: MIC TI
[13] = tested on: Staphylococcus aureus spp.aureus ATCC 29213, CCM 4223; assay: Antibacterial microdilution broth method (EUCAST); assay type: cell-based; settings: read-out: MIC SA
[14] = tested on: Staphylococcus epidermidis ATCC 12228, CCM 4418; assay: Antibacterial microdilution broth method (EUCAST); assay type: cell-based; settings: read-out: MIC SE
[15] = tested on: Aspergillus flavus CCM 8363; assay: Antifungal microdilution broth method (EUCAST); assay type: cell-based; settings: read-out: MIC AFla
[16] = tested on: Absidia corymbifera CCM 8077 (Lichtheimia corymbifera); assay: Antifungal microdilution broth method (EUCAST); assay type: cell-based; settings: read-out: MIC AC
[17] = tested on: Candida albicans ATCC 24433, CCM 8320; assay: Antifungal microdilution broth method (EUCAST); assay type: cell-based; settings: read-out: MIC CA
[18] = tested on: Enterococcus faecalis ATCC 29212, CCM 4224; assay: Antibacterial microdilution broth method (EUCAST); assay type: cell-based; settings: read-out: MIC EF
[19] = tested on: Acinetobacter baumanii ATCC 19606, DSM 30007; assay: Antibacterial microdilution broth method (EUCAST); assay type: cell-based; settings: Acinetobacter baumannii
[20] = tested on: Candida parapsilosis ATCC 22019, CCM 8260; assay: Antifungal microdilution broth method (EUCAST); assay type: cell-based; settings: Lodderomyces parapsilosis, read-out: MIC CP
[21] = in vitro, Middlebrook 7H9 broth, resazurin
[22] = HepG2, 24 h incubation, > means higher concentration not reproducible due to precipitation

CCCCCCCCNc1cnc(C(=O)Nc2ccc(CC)cc2)cn1 [Compound 5f, N-(4-ethylphenyl)-5-(octylamino)pyrazine-2-carboxamide] gave an MIC [1, 21] of at least 250 µg/mL, an MIC [2, 21] of at least 250 µg/mL and an IC50 (HepG2 cells; [22]) of over 10 µM. For the same molecule, the melting point was 131 to 132 °C, the “Solubility problem in antibacterial/antifungal testing” value [3] was “precipitated in both growth media” and the MIC [4] was at least 250 µg/mL.
With CCCCCNc1cnc(C(=O)Nc2cc(Cl)ccc2O)cn1 [Compound 7c, N-(5-chloro-2-hydroxyphenyl)-5-(pentylamino)pyrazine-2-carboxamide] the MIC [1, 21] was at least 500 µg/mL, the MIC [2, 21] was at least 500 µg/mL and the IC50 (HepG2 cells; [22]) was over 25 µM. The melting point was 250.3 to 255.1 °C, the “Solubility problem in antibacterial/antifungal testing” value [3] was “did not dissolve in DMSO” and the MIC [4] was at least 500 µg/mL.
Work on CCCCCNc1cnc(C(=O)Nc2cccc(O)c2)cn1 [Compound 2c, N-(3-hydroxyphenyl)-5-(pentylamino)pyrazine-2-carboxamide] yielded an MIC [1, 21] of at least 500 µg/mL, an MIC [2, 21] of at least 500 µg/mL and an IC50 (HepG2 cells; [22]) of over 10 µM. For the same molecule, the melting point was 224.8 to 226.1 °C, the “Solubility problem in antibacterial/antifungal testing” value [3] was “precipitated in both growth media” and the MIC [4] was at least 500 µg/mL.
Molecule CCCCCCNc1cnc(C(=O)Nc2cccc(C(F)(F)F)c2)cn1 [Compound 1d, 5-(Hexylamino)-N-(3-(trifluoromethyl)phenyl)pyrazine-2-carboxamide] has an MIC [1] of 25 µg/mL (≈ 68.2 µM), an MIC ([5]; 24 h) of over 500 µM and an MIC ([5]; 48 h) of over 500 µM. For the same molecule, the MIC [2] was at least 500 µg/mL, the “MIC KP” value ([6]; 24h) was over 500 µM and the “MIC KP” value ([6]; 48h) was over 500 µM. It also gave an MIC ([7]; 72 h) of over 500 µM, an MIC ([7]; 120 h) of over 500 µM and an MIC ([8]; ATCC204305, 24 h) of over 500 µM. For the same molecule, the MIC ([8]; ATCC204305, 48 h) was over 500 µM, the MIC ([9]; 24 h) was over 500 µM and the MIC ([9]; 48 h) was over 500 µM. For the same molecule, the MIC ([10]; 24 h) was over 500 µM, the MIC ([10]; 48 h) was over 500 µM and the MIC ([11]; 24 h) was over 500 µM. For the same molecule, the MIC ([11]; 48 h) was over 500 µM, the MIC ([12]; 72 h) was over 500 µM and the MIC ([12]; 120 h) was over 500 µM. It also gave an MIC ([13]; 24 h) of over 500 µM, an MIC ([13]; 48 h) of over 500 µM and an IC50 (HepG2 cells; HepG2, 24 h) of over 25 µM. It also gave a melting point of 148 to 149 °C, an MIC ([14]; 24 h) of over 500 µM and an MIC ([14]; 48 h) of over 500 µM. It also gave an MIC ([15]; CCM8363, 24 h) of over 500 µM, an MIC ([15]; CCM8363, 48 h) of over 500 µM and an MIC ([16]; CCM8077, 24 h) of over 500 µM. It also gave an MIC ([16]; CCM8077, 48 h) of over 500 µM, an MIC ([17]; 24 h) of over 500 µM and an MIC ([17]; 48 h) of over 500 µM. The MIC ([18]; 24 h) was over 500 µM, the MIC ([18]; 48 h) was over 500 µM and the MIC ([19]; 24h) was over 500 µM. The MIC ([19]; 48h) was over 500 µM, the MIC ([20]; 24 h) was over 500 µM and the MIC ([20]; 48 h) was over 500 µM. It also gave an MIC [4] of at least 500 µg/mL.

From article PMC7180572, “5-Alkylamino-N-phenylpyrazine-2-carboxamides: Design, Preparation, and Antimycobacterial Evaluation” (Molecules, 2020)
